# Assay results taken from patent US6630128B1, “Porphyrin derivatives their use in photodynamic therapy and medical devices containing them” (Destiny Pharma Limited, priority 1999, dated 2003).
# What was measured:
# [1] = Singlet oxygen quantum yields (singlet oxygen phosphorescence at 1270 nm); assay type: physicochemical; conditions: aerated toluene, excitation 355 nm, 20-23° C., relative to TPP ΦΔ=0.58
# Method: The singlet oxygen quantum yields were determined by the direct measurement of singlet oxygen phosphorescence at 1270 nm. Samples were excited using the third harmonic of a Q-switched Nd:YAG (neodymium: yttrium-aluminium-garnet) Spectra Physics GCR-150-10 laser, operating at an excitation wavelength of 355 nm. A small fraction of the laser output was passed through a solution state filter containing aqueous cobalt (II) sulphate (CoSO4) to remove residual 532 and 1064 nm radiation and then down a 8 mm diameter liquid light guide (Oriel). For the measurements the end of the light guide was held against a 1 cm×1 cm fluorescence cuvette (Hellma) holding the sample. During the course of the experiments the incident laser energy for each measurement was determined using a pyroelectric detector held behind the sample. This detector was calibrated at the start of the experiment using a second calibrated energy meter (Gentec ED100). The laser energy was adjusted by placing cells containing aqueous sodium nitrite between the CoSO4 filter and the light guide. Typical pulse energies used were in the range of 25-500 μJ per pulse. Shot to shot noise was estimated to be <10% and sets of 20 shots gave an average value within <3%.
# Phosphorescence from the sample was collected and passed through an interference filter centred at 1270 nm available from (Infra Red Engineering Ltd) and then focused onto the active area of a liquid nitrogen cooled germanium photodiode (North Coast EO-817P). The output from this device was AC coupled to a digital oscilloscope (Tektronix TDS-320) which digitised and averaged the transients. Typically 20 laser shots were used for each sample. The averaged data was transferred to a PC where it was stored and analysed.
# A stock solution of each of the title compounds of Examples 67 to 81 was prepared by dissolving a small sample of the respective title compound in approximately 5 ml of toluene (Fisher Scientific, Analytical grade). The exact concentrations of the stock solution was not determined.
# A working solution of each of the title compounds of Examples 67 to 81 was prepared by diluting the respective stock solution with toluene to give an absorbance of 0.100±0.005 at 355 nm when placed in a ultraviolet/visible spectrometer (ATI-Unicam UV-2) compared to a reference cell containing the pure toluene solvent. The ultraviolet/visible spectrum of each sample was also recorded over the range 300-700 nm.
# All of the data were recorded at ambient temperature, 20-23° C., and the solutions were aerated. The singlet oxygen emission decay was recorded for each sample using 5 laser energies and the data for each measurement were fitted to an exponential decay of the form I(t)=A.exp(−t/τ), where I(t) is the measured intensity of singlet oxygen phosphorescence at time t, A is the intensity extrapolated back to t=0 (ie when the laser fires), and τ is the lifetime of singlet oxygen. A typical decay for the title compound of Example 78 in toluene excited at 355 nm using a pulse energy of 365 μJ, where A=19.6 and τ=27.8 μs, is shown in FIG. 2.
# A plot of A versus the incident laser energy was drawn for each sample and the slope determined. The slope of such a graph is proportional to the singlet oxygen quantum yield. An example of a plot showing the linear relationship between the singlet oxygen emission intensity and the laser energy for the title compound of Example 78 and meso-tetraphenylporphyrin (TPP) is shown in FIG. 3.
# The experiments were carried out using batches of 5 samples of the working solution of each of the title compounds of 67 to 81 plus one reference sample meso-tetraphenylporphyrin (TPP). Each run was repeated at least once. The data sets obtained for each sample were within ±5% of the mean value.
# The dominant sources of error in the experiment include the shot-to-shot fluctuations in the laser and the difference in absorbances of the samples at the excitation wavelength. The values have an error of ±10%. […]
# [2] = Fluorescence quantum yields (corrected emission spectra, relative to TPP); assay type: physicochemical; conditions: excitation wavelength 355 nm, emission 550-800 nm
# Method: Mass spectra were recorded on a Finnigan MAT TSQ 700 triple quadrupole mass spectrometer equipped with an […]. The matrix-assisted laser desorption/ionization mass spectra of the porphyrins were obtained using a dithranol matrix. FAB-MS spectra were obtained using a 3-nitrobenzyl alcohol (NOBA) matrix. ^1H-NMR spectra were measured at 60 MHz on a Jeol JNM-PMX60 spectrometer, at 270 MHz on a Jeol EX 270 spectrometer and at 300 MHx on a Varian Gemini-300 spectrometer in CDCl3 using TMS as an internal reference. Ultraviolet/visible spectra of solutions of compounds in tetrahydrofuran (THF) or toluene were measured using a Hitachi U-3000 spectrophotometer or a ATI-Unicam UV-2 spectrophotometer. Reflectance-absorbance infra red (RAIR) spectra were recorded on a BIO-RAD FTS 165 spectrophotometer. Fluorescence emission spectra were recorded using a Spex Fluorolog 3 spectrophotometer at an excitation wavelength of 355 nm, emission at 550 to 800 nm, with a bandpass of 2 nm.
# The emission spectra were recorded using a Spex Fluorolog 3, excitation wavelength=355 nm, emission 550-800 nm, with a bandpass of 2 nm. A spectrum was recorded for each of the title compounds of Examples 67 to 81.
# The fluorescence quantum yield for each of the title compounds of Examples 67 to 81 was determined by measuring the integral of the corrected emission spectra for each compound and calculated relative to TPP=0.11 (Handbook of Photochemistry Ed 2, Murov, Carmichael and Hug, Dekker 1993). The fluorescence quantum yield for each of the title compounds of Examples 67 to 81 are listed in Table 1; values for Zn TPP and Mg TPP are included in Table 1 for reference but they were not measured in this work.
Compound,ΦΔ (singlet oxygen quantum yield) [1],"Quantum yield of fluorescence, relative to TPP = 0.11 [2]"
"5,5′-{4,4′-[12,12′-Dithiobis-(dodecyloxy)-phenyl]}-10,10′,15,15′,20,20′-hexakis-(3,4,5-tridecyloxy-phenyl)-diporphyrinato Magnesium [Example 68]",0.39 ± 0.04,0.10
"5,5′-{4,4′-[12,12′-Dithiobis-(dodecyloxy)-phenyl]}-10,10′,15,15′,20,20′-hexakis-(3,4,5-tridecyloxy-phenyl)-diporphyrinato Zinc [Example 67]",0.65 ± 0.07,0.04
"5-[4-(6-but-3-Enyloxy-hexyloxy)-phenyl]-10,15,20-tris-(3,4,5-tridecyloxy-phenyl)-porphyrinato Zinc [Example 70]",0.75 ± 0.07,0.04
"5-[4-(6-but-3-Enyloxy-hexyloxy)-phenyl]-10,15,20-tris-(3,5-didecyloxy-phenyl)-porphyrinato Zinc [Example 79]",0.76 ± 0.08,0.04
"5-[4-(12-but-3-Enyloxy-dodecyloxy)-phenyl]-10,15,20-tris-(3,4,5-trihexyloxy-phenyl)-porphyrinato Zinc [Example 72]",0.71 ± 0.07,0.04
"5-[4-(12-but-3-Enyloxy-dodecyloxy)-phenyl]-10,15,20-tris-(3,5-didecyloxy-phenyl)-porphyrinato Zinc [Example 80]",0.75 ± 0.07,0.04
"5-[4-(12-but-3-Enyloxy-dodecyloxy)-phenyl]-10,15,20-tris-(3,5-dihexadecyloxy-phenyl)-porphyrinato Zinc [Example 81]",0.70 ± 0.07,0.04
"C=CCCOCCCCCCOc1ccc(-c2c3nc(c(-c4cc(OCCCCCC)c(OCCCCCC)c(OCCCCCC)c4)c4ccc([n-]4)c(-c4cc(OCCCCCC)c(OCCCCCC)c(OCCCCCC)c4)c4nc(c(-c5cc(OCCCCCC)c(OCCCCCC)c(OCCCCCC)c5)c5ccc2[n-]5)C=C4)C=C3)cc1.[Zn+2] [Example 69, 5-[4-(6-but-3-Enyloxy-hexyloxy)-phenyl]-10,15,20-tris-(3,4,5-trihexyloxy-phenyl)-porphyrinato Zinc]",0.71 ± 0.07,0.04
"C=CCCOCCCCCCOc1ccc(-c2c3nc(c(-c4cc(OCCCCCCCCCCCCCCCC)c(OCCCCCCCCCCCCCCCC)c(OCCCCCCCCCCCCCCCC)c4)c4ccc([n-]4)c(-c4cc(OCCCCCCCCCCCCCCCC)c(OCCCCCCCCCCCCCCCC)c(OCCCCCCCCCCCCCCCC)c4)c4nc(c(-c5cc(OCCCCCCCCCCCCCCCC)c(OCCCCCCCCCCCCCCCC)c(OCCCCCCCCCCCCCCCC)c5)c5ccc2[n-]5)C=C4)C=C3)cc1.[Zn+2] [Example 71, 5-[4-(6-but-3-Enyloxy-hexyloxy)-phenyl]-10,15,20-tris-(3,4,5-trihexadecyloxy-phenyl)-porphyrinato Zinc]",0.72 ± 0.07,0.04
"C=CCCOCCCCCCCCCCCCOc1ccc(-c2c3nc(c(-c4cc(OCCCCCCCCCC)c(OCCCCCCCCCC)c(OCCCCCCCCCC)c4)c4ccc([n-]4)c(-c4cc(OCCCCCCCCCC)c(OCCCCCCCCCC)c(OCCCCCCCCCC)c4)c4nc(c(-c5cc(OCCCCCCCCCC)c(OCCCCCCCCCC)c(OCCCCCCCCCC)c5)c5ccc2[n-]5)C=C4)C=C3)cc1.[Zn+2] [Example 73, 5-[4-(12-but-3-Enyloxy-dodecyloxy)-phenyl]-10,15,20-tris-(3,4,5-tridecyloxy-phenyl)-porphyrinato Zinc]",0.71 ± 0.07,0.04
"C=CCCOCCCCCCCCCCCCOc1ccc(-c2c3nc(c(-c4cc(OCCCCCCCCCCCCCCCC)c(OCCCCCCCCCCCCCCCC)c(OCCCCCCCCCCCCCCCC)c4)c4ccc([n-]4)c(-c4cc(OCCCCCCCCCCCCCCCC)c(OCCCCCCCCCCCCCCCC)c(OCCCCCCCCCCCCCCCC)c4)c4nc(c(-c5cc(OCCCCCCCCCCCCCCCC)c(OCCCCCCCCCCCCCCCC)c(OCCCCCCCCCCCCCCCC)c5)c5ccc2[n-]5)C=C4)C=C3)cc1.[Zn+2] [Example 74, 5-[4-(12-but-3-Enyloxy-dodecyloxy)-phenyl]-10,15,20-tris-(3,4,5-trihexadecyloxy-phenyl)-porphyrinato Zinc]",0.71 ± 0.07,0.04
"C=CCCOCCCCCCCCCCCCCCCCOc1ccc(C2=c3ccc4[n]3[Zn][n]3c(ccc3C(c3cc(OCCCCCCCCCC)c(OCCCCCCCCCC)c(OCCCCCCCCCC)c3)=C3C=CC(=N3)C=4c3cc(OCCCCCCCCCC)c(OCCCCCCCCCC)c(OCCCCCCCCCC)c3)C(c3cc(OCCCCCCCCCC)c(OCCCCCCCCCC)c(OCCCCCCCCCC)c3)=C3C=CC2=N3)cc1 [Example 75, 5-[4-(16-but-3-Enyloxy-hexadecyloxy)-phenyl]-10,15,20-tris-(3,4,5-tridecyloxy-phenyl)-porphyrinato Zinc]",0.71 ± 0.07,0.04
"C=CCCOCCCCCCCCCCCCCCCCOc1ccc(-c2c3nc(c(-c4cc(OCCCCCCCCCCCCCCCC)c(OCCCCCCCCCCCCCCCC)c(OCCCCCCCCCCCCCCCC)c4)c4ccc([n-]4)c(-c4cc(OCCCCCCCCCCCCCCCC)c(OCCCCCCCCCCCCCCCC)c(OCCCCCCCCCCCCCCCC)c4)c4nc(c(-c5cc(OCCCCCCCCCCCCCCCC)c(OCCCCCCCCCCCCCCCC)c(OCCCCCCCCCCCCCCCC)c5)c5ccc2[n-]5)C=C4)C=C3)cc1.[Zn+2] [Example 76, 5-[4-(16-but-3-Enyloxy-hexadecyloxy)-phenyl]-10,15,20-tris-(3,4,5-trihexadecyloxy-phenyl)-porphyrinato Zinc]",0.66 ± 0.07,0.03
"C=CCCOCCCCCCOc1ccc(-c2c3nc(c(-c4cc(OCCCCCCCCCC)c(OCCCCCCCCCC)c(OCCCCCCCCCC)c4)c4ccc([n-]4)c(-c4cc(OCCCCCCCCCC)c(OCCCCCCCCCC)c(OCCCCCCCCCC)c4)c4nc(c(-c5cc(OCCCCCCCCCC)c(OCCCCCCCCCC)c(OCCCCCCCCCC)c5)c5ccc2[n-]5)C=C4)C=C3)cc1.[Mg+2] [Example 77, 5-[4-(6-but-3-Enyloxy-hexyloxy)-phenyl]-10,15,20-tris-(3,4,5-tridecyloxy-phenyl)-porphyrinato Magnesium]",0.51 ± 0.05,0.14
